Data taken from US20260250320A1, “LIPIDATED PEPTIDE INHIBITORS OF INTERLEUKIN-23 RECEPTOR” (Janssen Pharmaceutica NV, priority 2023, published 2026).
*1 amine or outer side, *2 acyl side, *3 side chain or, on linkers, in order; H or OH if unused. Where a SMILES comes first, the peptide text is derived from it. Bridges are numbered along the chain shown (N, C = ends). Side-chain parts run from the residue outwards. [ ]: non-standard residue; d: D form. The star is where a group is joined. PEG12 = NCCOCCOCCOCCOCCOCCOCCOCCOCCOCCOCCOCCOCCC(=O)O; Trp(7-Me,2,3-dihydro) = Cc1cccc2c1NCC2C[C@H](N)C(=O)O; CH2CH2OCH2CH2OCH2CH2NMe3+ = C[N+](C)(C)CCOCCOCC*; Trp(7-Me) = Cc1cccc2c(C[C@H](N)C(=O)O)c[nH]c12; C20 diacid = O=C(O)CCCCCCCCCCCCCCCCCCC(=O)*; C18 diacid = O=C(O)CCCCCCCCCCCCCCCCC(=O)*; γGlu = O=C(O)[C@H](CCC(=O)[*:2])N[*:1]; 2Nal = N[C@@H](Cc1ccc2ccccc2c1)C(=O)O; AEF = NCCOc1ccc(C[C@H](N)C(=O)O)cc1; X2 = C[N+](C)(C)C[C@@H](CC(=O)O)N*; 3Pal = N[C@@H](Cc1cccnc1)C(=O)O; Lys(Me) = CNCCCC[C@H](N)C(=O)O; Pen = CC(C)(S)[C@H](N)C(=O)O; Suc = O=C(CCC(=O)[*:2])[*:1]; Thp = NC1(C(=O)O)CCOCC1; AEEA = NCCOCCOCC(=O)O; Sar = CNCC(=O)O

Key:
[1] = target: T1, IL-23R (Homo sapiens, UniProt Q5VWK5); test: IL23R Reporter Assay; assay type: cell-based; details: HEK293 cells containing IL-23R, IL-12Rβ1 and STAT-inducible firefly luciferase reporter; 10 ng/mL IL-23 (EC90); 5 h
T1 construct: HEK293 cells containing IL-23R, IL-12Rβ1 and a firefly luciferase reporter gene driven by a STAT-inducible promoter (Promega); host or cells: HEK293
T1 sequence (Q5VWK5 24-629): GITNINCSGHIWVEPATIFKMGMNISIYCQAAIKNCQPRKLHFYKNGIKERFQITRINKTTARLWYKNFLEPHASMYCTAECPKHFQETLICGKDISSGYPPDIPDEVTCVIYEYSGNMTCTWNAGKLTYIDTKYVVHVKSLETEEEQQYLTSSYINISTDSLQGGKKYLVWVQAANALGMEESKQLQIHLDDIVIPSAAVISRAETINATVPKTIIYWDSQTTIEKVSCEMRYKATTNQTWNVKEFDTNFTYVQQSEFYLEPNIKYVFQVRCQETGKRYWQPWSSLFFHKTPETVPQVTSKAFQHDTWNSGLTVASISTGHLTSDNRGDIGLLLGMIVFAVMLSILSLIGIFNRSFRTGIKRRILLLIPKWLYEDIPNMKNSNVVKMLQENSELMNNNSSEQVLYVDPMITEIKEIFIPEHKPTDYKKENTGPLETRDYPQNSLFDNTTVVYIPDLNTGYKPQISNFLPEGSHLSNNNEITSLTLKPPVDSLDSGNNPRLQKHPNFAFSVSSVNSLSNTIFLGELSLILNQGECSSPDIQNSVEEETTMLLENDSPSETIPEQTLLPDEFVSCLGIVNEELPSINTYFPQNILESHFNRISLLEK
Procedure, shortened: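 HEK293 cells carrying IL-23R, IL-12Rβ1 and a STAT-driven firefly luciferase reporter (4000 cells/well) received compound, then 10 ng/mL IL-23 solution (EC90), and were incubated for 5 h at 37° C. BioGlo luminescence was normalised to IL-23 alone (0%) and 30 μM control inhibitor (100%). IC50 came from a 4-parameter Hill fit.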

[2] = test system: IL-23-stimulated phosphorylated STAT3 in peripheral blood mononuclear cells (PBMCs); test: PBMC pSTAT3 Assay; assay type: cell-based; details: PBMCs from healthy donors; 30 min preincubation with peptide; IL-23 5 ng/mL for 30 min; phospho-STAT3 by MSD
Procedure, shortened: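 Healthy-donor PBMCs expanded 4 days on anti-CD3 with 100 ng/mL IL-1β, starved ~4 h in RPMI-0.1% BSA, preincubated 30 min with peptide, then stimulated 30 min at 37 °C with 5 ng/mL IL-23. Lysate pSTAT3 measured by MSD phospho-STAT panel; IC50 derived.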

Row | IC50 [1] | SMILES | IC50 [2]
1 | 50 to 500 nM | CC(=O)N(C)CCCC[C@@H]1NC(=O)[C@H](Cc2c[nH]c3c(C)cccc23)NC(=O)[C@H]([C@@H](C)O)NC(=O)[C@H](CC(=O)N(C)C)NC(=O)[C@@H](NC(=O)COCCOCCNC(=O)COCCOCCNC(=O)CC[C@H](NC(=O)CCCCCCCCCCCCCCCCCCC(=O)O)C(=O)O)C(C)(C)SSC(C)(C)[C@@H](C(=O)N[C@@H](Cc2ccc(OCCOCCOCC[N+](C)(C)C)cc2)C(=O)N[C@@H](Cc2ccc3ccccc3c2)C(=O)NC2(C(=O)N[C@@H](CCCCN(C)C(C)=O)C(=O)N[C@@H](CC(N)=O)C(=O)N[C@@H](Cc3cccnc3)C(=O)N(C)CC(=O)N(C)C)CCOCC2)NC1=O [compound 110, HOC20gEPEG2PEG2CO-Pen(3)-N(N(Me)2)-T-7MeW-K(NMeAc)-Pen(3)-APEG3F-2Nal-THP-K(NMeAc)-N-3Pya-Sar-CON(Me)2] ({C20 diacid-γGlu-AEEA-AEEA}-[Pen]D(NMe2)T[Trp(7-Me)][Lys(Me)](Ac)[Pen]Y(CH2CH2OCH2CH2OCH2CH2NMe3+)[2Nal][Thp][Lys(Me)](Ac)N[3Pal][Sar]-NMe2; disulfide 1-6) | < 0.5 nM
2 | 50 to 500 nM | CC(=O)NCCCC[C@@H]1NC(=O)[C@H](CC2CNc3c(C)cccc32)NC(=O)[C@H]([C@@H](C)O)NC(=O)[C@H](CC(N)=O)NC(=O)[C@@H](NC(=O)[C@@H](CCCNC(=N)N)NC(C)=O)C(C)(C)SSC(C)(C)[C@@H](C(=O)N[C@@H](Cc2ccc(OCCN)cc2)C(=O)N[C@@H](Cc2ccc3ccccc3c2)C(=O)NCC(=O)N[C@@H](CCCCNC(=O)CCOCCOCCOCCOCCOCCOCCOCCOCCOCCOCCOCCOCCNC(=O)CC[C@H](NC(=O)CCCCCCCCCCCCCCCCC(=O)O)C(=O)O)C(=O)N[C@@H](CC(N)=O)C(=O)N[C@@H](Cc2cccnc2)C(=O)N(C)CC(N)=O)NC1=O (stereo partly drawn) [compound 146, MeCO-r-Pen(3)-N-T-7MeW-K(Ac)-Pen(3)-AEF-2Nal-THP-K(PEG12gEC18OH)-N-3Pya-Sar-CONH2] (Ac-[dR][Pen]NT[Trp(7-Me,2,3-dihydro)]K(Ac)[Pen][AEF][2Nal]GK([PEG12-γGlu-C18 diacid])N[3Pal][Sar]-NH2; disulfide 2-7) | < 0.5 nM
3 | 50 to 500 nM | CC(=O)N[C@H](CCCNC(=N)N)C(=O)N[C@@H]1C(=O)N[C@@H](CC(N)=O)C(=O)N[C@@H]([C@@H](C)O)C(=O)N[C@@H](Cc2c[nH]c3c(C)cccc23)C(=O)N[C@@H](CCCCNC(=O)CCC(=O)N[C@H](CC(=O)O)C[N+](C)(C)C)C(=O)N[C@H](C(=O)N[C@@H](Cc2ccc(OCCN)cc2)C(=O)N[C@@H](Cc2ccc3ccccc3c2)C(=O)NC2(C(=O)N[C@@H](CCCCNC(=O)COCCOCCNC(=O)COCCOCCNC(=O)CC[C@H](NC(=O)CCCCCCCCCCCCCCCCC(=O)O)C(=O)O)C(=O)N[C@@H](CC(N)=O)C(=O)N[C@@H](Cc3cccnc3)C(=O)N(C)CC(N)=O)CCOCC2)C(C)(C)SSC1(C)C [compound 48, MeCO-r-Pen(3)-N-T-7MeW-K(d)-Pen(3)-AEF-2Nal-THP-K(PEG2PEG2gEC18OH)-N-3Pya-Sar-CONH2] (Ac-[dR][Pen]NT[Trp(7-Me)]K([Suc-X2])[Pen][AEF][2Nal][Thp]K([AEEA-AEEA-γGlu-C18 diacid])N[3Pal][Sar]-NH2; disulfide 2-7) | < 0.5 nM

Row | SMILES | IC50 [1] | IC50 [2]
4 | C=CCOC(=O)CN1CCOc2ccc(cc2)C[C@H](NC(=O)[C@H]2NC(=O)[C@H](CCCCNC(C)=O)NC(=O)[C@H](Cc3c[nH]c4c(C)cccc34)NC(=O)[C@H]([C@@H](C)O)NC(=O)[C@H](CCCCNC(=O)COCCOCCNC(=O)COCCOCCNC(=O)CC[C@H](NC(=O)CCCCCCCCCCCCCCCCCC(=O)O)C(=O)O)NC(=O)[C@@H](NC(=O)CCOCCOCCNC(=O)COCCOCCNC(=O)COCCOCCNC(=O)CC[C@H](NC(=O)CCCCCCCCCCCCCCCCC(=O)O)C(=O)O)C(C)(C)SSC2(C)C)C(=O)N[C@@H](Cc2ccc3ccccc3c2)C(=O)NC2(CCOCC2)C(=O)N[C@@H]1C(=O)N[C@@H](CC(N)=O)C(=O)N[C@@H](Cc1cccnc1)C(=O)N(C)CC(N)=O [compound 24, AEEP(PEG2PEG2gEC18OH)-Pen(3)-K(PEG2PEG2gEC18OH)-T-7MeW-K(Ac)-Pen(3)-AEF-2Nal-THP-E(OAll)-N-3Pya-Sar-CONH2] | 50 to 500 nM | 0.5 to 5 nM
